Columns and labels:
PD population = conditions: short term placebo controlled trial; cited from earlier work
[1] = Intranasal pharmacokinetics in plasma; type: in vivo, Sprague Dawley rats; conditions: plasma, 0.5 mg/kg IN dose, SD rats
From the text: (§1) The purpose of this example was to evaluate the in vivo distribution and function of aminosterols, such as Aminosterol 1436 and squalamine, following intranasal administration. This experiment relates to the amount of drug needed to obtain a therapeutic result, based on an IN route of administration. The results described below detail that aminosterols such as Aminosterol 1436 act at the level of the hypothalamus following in vivo administration, regardless of the route of administration.

[2] = Intranasal pharmacokinetics in CSF; type: in vivo, Sprague Dawley rats; conditions: 0.5 mg/kg IN, SD rats
From the text: as §1

[3] = system: myenteric intrinsic primary afferent neurons (IPANs); assay: Whole-cell patch clamp of IPANs, divided hemi-dissection preparation of FVB PD mouse; type: cell-based
Experimental: Whole-cell Patch Clamp: Whole-cell patch clamp was performed on a hemi-dissected myenteric plexus preparation as previously described.
IPAN excitability: PD model mice have reduced IPAN excitability. To determine the mechanism by which squalamine stimulated intestinal motility, electrophysiological studies on single neurons within the intact myenteric plexus of PD mice and corresponding control animals were conducted using published methods. In this series of studies a mouse α-synuclein knock-out model that expressed four copies of human A53T α-synuclein driven by the endogenous α-synuclein promoter (FVB PD), with the control (FVB control) represented by a strain engineered to express two copies of the normal human α-synuclein protein, was used.
IPANs from FVB PD animals were less excitable than IPANs recorded from FVB controls. The sample AP threshold (mean SD (N)) was 46% smaller for FVB control (32.2±20.0 (16)) compared to FVB PD (59.2±46.1 (20)). The number of action potentials produced by a current 2× the threshold intensity was 145% larger, 3.9±5.1 (16) for FVB control versus 1.6±0.6 (19) for FVB PD. The area under of the curve for the sAHP was 42% smaller −49.5±63.7 (16) versus −85.5±78.2 (19). RMP was depolarized by 10% for the FVB control, −56±10 (16) versus −62±6 (20).
Myenteric Primary Afferent Neuron Excitation: Squalamine excites myenteric primary afferent neurons. The effect of squalamine on the excitability of an isolated intestinal segment from the FVB PD mouse was explored using divided hemi-dissection preparations so that neurons are exposed for only half the area of an opened small intestinal segment. In this experiment, the inquiry was whether squalamine influenced the activity of the IPAN through direct interaction or indirectly, by stimulating release of epithelial mediators that influenced IPAN behaviour. Addition of squalamine (30 μM) to Krebs buffer in either the epithelial or the myenteric plexus compartments of the divided hemi-dissection preparation increased IPAN excitability. […] Addition of squalamine decreased the area under the curve of the sAHP by 77% from 86.8±88.2 to 20.3±25.3 mV·s, and depolarised RMP by 12% from −62±7 to −54±6 mV.

A53T and WT mice = assay: In vivo fecal pellet output; parameters: species or system mouse
Experimental: In vivo fecal pellet output: Mice were subjected to the FPO test 1 day prior to the start of dosing with squalamine or vehicle (sterile water) (day 0). Mice were fasted for one hour and then given access to food one hour before FPO testing. On days 1-5 mice were fasted for one hour prior to oral gavage with vehicle or 20, 40, 80, or 120 mg/kg squalamine. Oral gavage occurred between 10:00 to 11:00 am daily. On day 5, the FPO test was performed 1 hour after the final dose was administered. Total number of stool pellets produced in the first 15 min and over a 60 min period was measured in each group. Stool water content was measured by comparing wet and dry weights of the stool.
In Vivo Fecal Pellet Output: Feeding of squalamine increased fecal pellet output, without substantially increasing water content, in vivo. To extend the ex vivo studies to the animal, both A53T and WT mice (N=10 mice/group/dose) were administered squalamine orally by gavage for 5 days (Day 1 to Day 5), at a range of doses from 0, 20, 40, 80 and 120 mg/kg. Fecal pellet output (FPO) within the first 15 minutes was measured following the gavage of vehicle control (on Day 0) or squalamine (on Day 5, at doses of 0, 20, 40, 80, and 120 mg/kg). There was no significant difference in the FPO in the first 15 min in WT and A53T mice between Days 0 and 5, in the groups receiving only vehicle (P>0.05). […] An increase in colonic motility should decrease the time of the stool within the colon and thereby increase the moisture content of the fecal pellets. […] Thus, squalamine appears to increase colonic transit in vivo.

[4] = system: patients with PD and constipation; assay: Phase 2 trial Stage 2: bowel function under daily oral dosing (stool diary, PAC-QOL, PAC-SYM); type: in vivo, human; conditions: patients with baseline ≥1 CSBM/week
Experimental: Following successful screening, all subjects underwent a 14-day run-in period where the degree of constipation was assessed through a validated daily log (Zinsmeister et al. 2013) establishing baseline CSBMs/week. Subjects with an average of <3 CSBMs/week proceeded to dosing.
In Stage 2, 34 patients were evaluated.
The primary efficacy outcome variable was whether or not a subject was a “success” or “failure”. This is an endpoint based on subject diary entries for the “fixed dose” period prior to the endpoint assessment defined as average complete stool frequency increase by 1 or more over baseline, or 3 or more complete spontaneous stools/week. The subject was deemed a “success” if s/he met one or more of the criteria listed above, otherwise the subject was deemed a “failure”. The primary analysis was based on all subjects with a baseline assessment and an assessment at the end of the “fixed-dose” period and was a comparison of the proportion of successes with 0.10 (the null hypothesis corresponding to no treatment effect).

[5] = system: colonic propagating contractile clusters (PCCs); assay: Ex vivo colon motility with intraluminal squalamine, control mouse strains
Experimental: Ex vivo colon motility: For the ex vivo colonic motility experiments, the colon was excised and placed within an organ-bath perfusion chamber filled with warmed, oxygenated Krebs buffer or physiological saline (35° C., 95% 02, 5% CO2). The colon was flushed and cannulated at the oral and anal ends to a manifold and syringe to allow inflow of oxygenated Krebs buffer (or physiological saline) or Krebs and squalamine and to maintain intraluminal pressure. The height of the inflow tube at baseline measurements was parallel to the height of the colon in the organ bath (1.1 cm). Mechanical threshold defined an inflow pressure great enough to generate a contraction in under 30 sec (1.8 cm). Recordings in the first portion of the study were measured at a mechanical threshold causing a pressure differential of 2 hPa (cm H2O). Inflow was raised 2-3 hPa above baseline and outflow was raised a minimum of 0.2 hPa above inflow. Motor patterns were recorded using a Microsoft LifeCam 3000 web camera or a Logitech Quickcam Pro camera positioned 7-8 cm above the tissue. Videos were recorded during a 20-minute Krebs control and a 20-minute Krebs+squalamine period in which solutions were added to the inflow syringe.
Spatiotemporal Maps: Video recordings were used to construct spatiotemporal maps (STmaps) using edge detection software. Parameters of motor patterns including, velocity, amplitude, and frequency were measured using ImageJ and Matlab (Version 12) software.
Statistical Analysis: Effects of squalamine on motility and IPAN excitability in WT and PD model mice were assessed in paired experiments following Krebs control and subsequent squalamine exposure. Unpaired comparisons were performed for experiments comparing PD control and PD model strains. Percent difference was calculated by (treatment-control)/control. Data are presented as mean±SEM. Ex vivo statistical comparisons were performed using paired or unpaired, two-tailed t-tests or 1-way ANOVA using Graphpad Prism software (Version 7.0). In vivo studies were analysed using 1-way and 2-way ANOVA. Statistical significance was determined when p<0.05.

[6] = system: individuals with mild constipation; conditions: cited from earlier work

Molecule: CCCCC(F)(F)[C@@]1(O)CC[C@H]2[C@@H](CC(=O)[C@@H]2CCCCCCC(=O)O)O1 [Lubiprostone]
- share of treated in whom effective (PD population): about 50%

Molecule: CC(C)[C@@H](CC[C@@H](C)[C@H]1CC[C@H]2[C@@H]3[C@H](O)C[C@H]4C[C@@H](NCCCNCCCCN)CC[C@]4(C)[C@H]3CC[C@]12C)OS(=O)(=O)O.C[C@H](O)C(=O)O.O [squalamine lactate]
- AUCInf [1]: 7863 ng·h/mL
- AUC_% Extrap_obs [1]: 32.7%
- AUClast [1]: 5296 ng·h/mL
- AUClast/D [1]: 10600 kg·ng·h/mL/mg
- Cmax [1]: 1001 ng/mL
- MRTInf_obs [1]: 7.12 h
- T1/2 [1]: 4.55 h
- Tmax [1]: 1.00 h
- presence in CSF [2]: No squalamine lactate or Aminosterol 1436 was found in CSF

Molecule: CC(C)[C@@H](CC[C@@H](C)[C@H]1CC[C@H]2[C@@H]3[C@H](O)C[C@H]4C[C@@H](NCCCNCCCCN)CC[C@]4(C)[C@H]3CC[C@]12C)OS(=O)(=O)O [squalamine]
- decrease of AP threshold ([3]; added to the epithelium): 44%
- decrease of sAHP AUC ([3]; added to the epithelium): 77%
- increase of number of APs at 2× threshold current ([3]; added to the epithelium): 87%
- number of APs at 2× threshold current ([3]; added to the epithelium, before 1.6±0.6): 3.1±0.7
- decrease of AP threshold ([3]; added to the myenteric plexus): 37%
- decrease of sAHP AUC ([3]; added to the myenteric plexus): 87%
- number of APs at 2× threshold current ([3]; added to the myenteric plexus, before 1.4±0.5): 4.4±2.8
- area under the curve of the sAHP ([3]; added to the myenteric plexus, before −71.9±60.1): −9.6±15.1 mV·s
- stool water content (A53T and WT mice; A53T mice, 80 and 120 mg/kg (P=0.023 and 0.0004)): significantly increased water content
- FPO in the first 15 min, Day 5 versus Day 0 (A53T and WT mice; A53T mice, oral gavage 5 days, 20, 40 and 80 mg/kg (P<0.005, P<0.0001, P<0.01)): significantly increased FPO
- fecal pellet output (A53T and WT mice; PD and wild type mice, 40 mg/kg/d for 5 days): increased their fecal pellet output
- stool water content (A53T and WT mice; WT mice, 80 mg/kg (P=0.025)): significantly increased water content
- FPO in the first 15 min, Day 5 versus Day 0 (A53T and WT mice; WT mice, oral gavage 5 days, 40 and 120 mg/kg (P<0.01 and P<0.05)): significantly increased FPO
- mean prokinetic dose [4]: 120 mg
- increase of PCC velocity ([5]; C57BL/6 (P<0.05)): 38%
- increase of PCC amplitude ([5]; C57BL/6 (P=0.27)): 1%
- increase of PCC frequency ([5]; C57BL/6 (P=0.27)): 51%
- PCC frequency ([5]; C57BL/6, control 0.007±0.001): 0.010±0.003 Hz
- PCC amplitude ([5]; C57BL/6, control 0.66±0.06): 0.70±0.07 cm
- PCC velocity ([5]; C57BL/6, control 1.31±0.10): 1.80±0.20 mm/s
- increase of PCC velocity ([5]; CD-1 (P<0.01)): 81%
- increase of PCC frequency ([5]; CD-1 (P=0.06)): 63%
- increase of PCC amplitude ([5]; CD-1 (P=0.56)): 12%
- increase of PCC velocity ([5]; Swiss Webster (P<0.0001)): 45%
- increase of PCC frequency ([5]; Swiss Webster (P<0.01)): 35%
- decrease of PCC amplitude ([5]; Swiss Webster (P=0.65)): 3%

Molecule: polyethylene glycol [polyethylene glycol (Magrogol)]
- stool frequency and consistency [6]: shown to provide benefit

Reference: US20240277732A1, “COMPOSITIONS AND METHODS FOR TREATING BRAIN-GUT DISORDERS” (Enterin, Inc., priority 2018, published 2024)
